Target: Fibroblast growth factor receptor 1 (Homo sapiens, UniProt P11362)
Sequence (P11362 whole entry): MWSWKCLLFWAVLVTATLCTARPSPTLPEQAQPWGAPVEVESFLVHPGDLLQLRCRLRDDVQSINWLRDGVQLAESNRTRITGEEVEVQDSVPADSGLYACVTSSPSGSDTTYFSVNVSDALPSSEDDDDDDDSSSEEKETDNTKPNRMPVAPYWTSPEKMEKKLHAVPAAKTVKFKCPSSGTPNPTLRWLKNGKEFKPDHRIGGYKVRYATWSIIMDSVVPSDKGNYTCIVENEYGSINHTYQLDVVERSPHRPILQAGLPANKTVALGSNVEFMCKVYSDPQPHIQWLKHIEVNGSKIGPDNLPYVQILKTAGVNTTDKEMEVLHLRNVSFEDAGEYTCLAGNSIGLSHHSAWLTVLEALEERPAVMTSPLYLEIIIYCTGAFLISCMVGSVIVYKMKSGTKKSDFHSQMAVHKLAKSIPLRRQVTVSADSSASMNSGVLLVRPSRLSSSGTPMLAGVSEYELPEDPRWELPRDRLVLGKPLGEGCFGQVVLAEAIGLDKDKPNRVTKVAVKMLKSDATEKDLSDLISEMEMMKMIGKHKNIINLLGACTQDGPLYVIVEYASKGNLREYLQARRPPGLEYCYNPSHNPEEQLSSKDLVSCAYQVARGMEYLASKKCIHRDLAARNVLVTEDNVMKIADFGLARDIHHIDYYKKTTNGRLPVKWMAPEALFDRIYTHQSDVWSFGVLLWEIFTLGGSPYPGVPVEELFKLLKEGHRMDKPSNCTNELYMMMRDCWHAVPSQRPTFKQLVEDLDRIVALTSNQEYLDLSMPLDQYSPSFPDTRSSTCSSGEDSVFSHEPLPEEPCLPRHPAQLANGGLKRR

COc1cc(OC)cc(-c2cc3cnc(N)nc3nc2NC(=O)NC(C)(C)C)c1 [6-arylpyrido[2,3-d]pyrimidine deriv. 25]
Ki: 45.2 nM
